Results reported in publication PMC4431592 (Journal of medicinal chemistry, 2015).
Blank lines part the entries; values can stand above or below the compound they belong to.

Tests used:
GAK [1] = molecular target: T1, GAK (Homo sapiens, UniProt O14976); test: KINOMEscan active site-directed competition binding assay, GAK
T1 sequence (O14976 1-1311): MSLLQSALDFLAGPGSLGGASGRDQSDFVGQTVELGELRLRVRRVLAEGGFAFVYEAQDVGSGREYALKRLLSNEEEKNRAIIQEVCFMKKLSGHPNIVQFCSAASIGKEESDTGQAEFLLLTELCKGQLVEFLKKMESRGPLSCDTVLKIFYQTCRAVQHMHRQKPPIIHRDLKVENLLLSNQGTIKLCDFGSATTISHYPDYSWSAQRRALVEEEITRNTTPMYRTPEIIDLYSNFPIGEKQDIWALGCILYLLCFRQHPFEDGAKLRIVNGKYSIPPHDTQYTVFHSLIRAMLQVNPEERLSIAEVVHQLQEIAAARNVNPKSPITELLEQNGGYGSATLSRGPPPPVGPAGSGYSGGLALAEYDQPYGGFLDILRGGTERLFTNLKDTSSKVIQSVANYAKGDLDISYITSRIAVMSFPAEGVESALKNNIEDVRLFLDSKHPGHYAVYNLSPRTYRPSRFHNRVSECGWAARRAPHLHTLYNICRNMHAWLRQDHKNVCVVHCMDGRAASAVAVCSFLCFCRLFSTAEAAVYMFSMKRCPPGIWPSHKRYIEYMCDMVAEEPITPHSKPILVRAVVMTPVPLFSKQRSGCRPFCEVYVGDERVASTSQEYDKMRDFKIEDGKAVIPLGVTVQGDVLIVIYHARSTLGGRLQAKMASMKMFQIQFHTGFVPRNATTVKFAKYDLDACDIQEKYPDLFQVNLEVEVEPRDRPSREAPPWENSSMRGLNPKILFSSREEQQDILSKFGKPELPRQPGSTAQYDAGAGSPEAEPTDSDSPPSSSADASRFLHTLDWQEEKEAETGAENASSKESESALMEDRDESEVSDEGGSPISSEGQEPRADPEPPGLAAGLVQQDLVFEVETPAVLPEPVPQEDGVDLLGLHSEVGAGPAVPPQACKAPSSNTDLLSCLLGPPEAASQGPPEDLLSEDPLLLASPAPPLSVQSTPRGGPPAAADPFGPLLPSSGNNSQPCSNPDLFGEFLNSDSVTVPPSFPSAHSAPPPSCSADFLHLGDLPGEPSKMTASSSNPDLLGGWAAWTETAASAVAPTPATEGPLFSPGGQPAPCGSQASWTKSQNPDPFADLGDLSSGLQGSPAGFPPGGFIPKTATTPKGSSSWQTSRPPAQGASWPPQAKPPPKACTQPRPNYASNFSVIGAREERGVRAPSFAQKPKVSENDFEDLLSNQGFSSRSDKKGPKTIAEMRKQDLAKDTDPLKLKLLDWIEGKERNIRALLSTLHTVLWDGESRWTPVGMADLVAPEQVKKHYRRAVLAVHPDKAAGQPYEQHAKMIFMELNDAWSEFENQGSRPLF

EGFR = EGFR (Homo sapiens, UniProt P00533); test: EGFR binding / anti-EGFR activity
HCV RNA replication = HCV RNA replication by luciferase assay after electroporation; type: cell-based, hepatitis C virus; details: 72 hours postelectroporation, treated daily
Huh-7.5 cells = test: Cellular viability, alamarBlue-based assay; details: HCVpp entry assay, 4 hour treatment
AP2M1 phosphorylation = AP2M1 phosphorylation by Western analysis in Huh-7.5 cells; type: cell-based, human; details: calyculin A, versus DMSO control
GAK [2] = molecular target: T1, GAK; details: cited from earlier work

EGFR, sequence (P00533 25-1210): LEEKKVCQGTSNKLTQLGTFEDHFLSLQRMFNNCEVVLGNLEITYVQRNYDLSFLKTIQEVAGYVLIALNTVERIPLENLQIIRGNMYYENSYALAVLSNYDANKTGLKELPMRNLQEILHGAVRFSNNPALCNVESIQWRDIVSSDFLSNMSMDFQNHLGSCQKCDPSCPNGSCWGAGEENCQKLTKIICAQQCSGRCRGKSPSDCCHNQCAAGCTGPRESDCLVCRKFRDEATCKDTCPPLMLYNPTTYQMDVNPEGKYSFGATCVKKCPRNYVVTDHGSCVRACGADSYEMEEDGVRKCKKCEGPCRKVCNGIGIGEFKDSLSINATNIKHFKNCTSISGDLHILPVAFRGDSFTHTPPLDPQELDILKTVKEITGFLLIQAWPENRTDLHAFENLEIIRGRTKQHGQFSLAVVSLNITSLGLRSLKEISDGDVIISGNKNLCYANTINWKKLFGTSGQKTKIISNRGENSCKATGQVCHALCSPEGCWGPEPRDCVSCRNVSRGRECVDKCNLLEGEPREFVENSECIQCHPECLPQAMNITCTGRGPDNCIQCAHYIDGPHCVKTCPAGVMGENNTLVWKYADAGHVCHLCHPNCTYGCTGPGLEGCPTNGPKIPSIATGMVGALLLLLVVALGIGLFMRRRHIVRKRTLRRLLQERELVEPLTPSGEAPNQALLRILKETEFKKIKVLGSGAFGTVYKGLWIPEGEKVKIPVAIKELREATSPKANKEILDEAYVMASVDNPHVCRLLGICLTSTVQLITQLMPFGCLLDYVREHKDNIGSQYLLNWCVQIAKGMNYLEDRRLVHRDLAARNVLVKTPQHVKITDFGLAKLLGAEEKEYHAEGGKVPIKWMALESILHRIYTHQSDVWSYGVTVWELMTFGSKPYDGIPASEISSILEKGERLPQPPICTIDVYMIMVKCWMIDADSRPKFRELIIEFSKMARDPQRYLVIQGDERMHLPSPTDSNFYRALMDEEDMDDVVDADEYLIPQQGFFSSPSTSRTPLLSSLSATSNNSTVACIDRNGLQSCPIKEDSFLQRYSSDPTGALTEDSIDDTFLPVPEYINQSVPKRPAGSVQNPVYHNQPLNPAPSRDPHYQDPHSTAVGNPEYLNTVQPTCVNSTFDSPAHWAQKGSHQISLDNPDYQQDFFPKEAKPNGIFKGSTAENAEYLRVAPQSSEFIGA

- GAK affinity (in words) (GAK [1]): lacks any affinity
SMILES: COc1ccc(-c2cnc3c(N4CCOCC4)snc3c2)c(OC)c1 [Compound 12c, 4-(6-(2,4-Dimethoxyphenyl)isothiazolo[4,3-b]pyridin-3-yl)morpholine]

- GAK affinity (in words) (GAK [1]): completely lacking GAK affinity
SMILES: COc1ccc(-c2cnc3c(NCCc4ccccc4)snc3c2)cc1OC [Compound 13k, 6-(3,4-dimethoxyphenyl)-N-phenethylisothiazolo[4,3-b]pyridin-3-amine]

- GAK affinity (in words) (GAK [1]): equipotent
SMILES: c1csc(-c2cnc3c(N4CCOCC4)snc3c2)c1 [Compound 12a, 4-(6-(Thiophen-2-yl)isothiazolo[4,3-b]pyridin-3-yl)morpholine]

SMILES: COc1cc(-c2cnc3c(N4CCOCC4)snc3c2)ccc1N [Compound 12i, 2-Methoxy-4-(3-morpholinoisothiazolo[4,3-b]pyridin-6-yl)aniline]
- anti-EGFR activity (in words) (EGFR): lack anti-EGFR activity
- effect on HCV RNA replication (in words) (HCV RNA replication): did not affect HCV RNA replication

SMILES: COc1cc(-c2cnc3c(N4CCOCC4)snc3c2)cc(OC)c1OC [Compound 12g, 4-(6-(3,4,5-Trimethoxyphenyl)isothiazolo[4,3-b]pyridin-3-yl)morpholine]
- anti-EGFR activity (in words) (EGFR): lack anti-EGFR activity
- effect on cellular viability (in words) (Huh-7.5 cells): minimal effect on cellular viability
- p-AP2M1 to AP2M1 ratio (in words) (AP2M1 phosphorylation): reduced
- effect on HCV RNA replication (in words) (HCV RNA replication): did not affect HCV RNA replication

- GAK affinity (in words) (GAK [1]): completely inactive
SMILES: c1cc2c(cc1-c1cnc3c(N4CCOCC4)snc3c1)OCO2 [Compound 12f, 4-(6-(Benzo[d][1,3]dioxol-5-yl)isothiazolo[4,3-b]pyridin-3-yl)morpholine]

SMILES: CCOc1cc2ncc(C#N)c(Nc3ccc(F)c(Cl)c3)c2cc1NC(=O)/C=C/CN(C)C [pelitinib]
- Kd (in words) (GAK [2]): low nanomolar range
